Measurements taken from paper PMC10035387 (Cancer Research Communications, 2022).
Like-named read-outs stand apart in the source and are kept apart here.

Legend:
[1] = system: PDAC cell lines that retain RB1 expression; parameters: method as in PMID 29080858; conditions: cited from earlier work
[2] = human, in vivo
Description: (§1) Other outcomes included safety, pharmacokinetics, pharmacodynamics, tissue/blood biomarkers, objective tumor response, progression-free survival (PFS), and OS assessments.

[3] = system: metastatic pancreatic cancer; conditions: cited from earlier work; for Median OS: P < 0.001; for Efficacy in randomized clinical trials: patients with PDAC
[4] = Phase Ib study: plasma pharmacokinetics; conditions: steady state, overall population
Description: as §1

Ki67 = Ki67 IHC in serial paired skin biopsy specimens; format: in vivo, human; conditions: skin biopsies
phospho-Rb (pRb) = test: pRb IHC in serial paired skin biopsy specimens; format: in vivo, human; conditions: skin biopsies
[5] = cited from earlier work
[6] = Phase Ib study: adverse events, dose-limiting toxicities, MTD
Procedure: The criteria for dose escalation were based on a modified toxicity probability method ([20]), using a statistical probability algorithm calculated with all patients treated at the same dose level. […] The study was conducted in accordance with legal and regulatory requirements and the Declaration of Helsinki. Prior to participant enrollment, the study was approved by the Institutional Review Board/Ethics Committee at each site at which it was conducted. Patients provided written informed consent before any study procedures were performed.

Panc265 model = conditions: cited from earlier work
[7] = system: cytochrome P450 (CYP) 2C8 and CYP3A4; parameters: method as in earlier work; conditions: cited from earlier work
[8] = after 2 weeks of palbociclib treatment, first-line MTD group
[9] = after a further 2 weeks of palbociclib treatment
[10] = after the 1-week palbociclib break, before cycle 2
[11] = PALOMA-1, patients with breast cancer
[12] = PALOMA-2, patients with breast cancer

## CC(=O)c1c(C)c2cnc(Nc3ccc(N4CCNCC4)cn3)nc2n(C2CCCC2)c1=O [palbociclib]
[1]
  Effect on PDAC cell lines: induces cell-cycle arrest and apoptosis
[2]
  CL/F, geometric mean: 79.95 L/h
  CL/F, median: 74.10 L/h
  Ctrough, geometric mean: 34.89 ng/mL
  Ctrough, median: 34.60 ng/mL
  tmax, median: 4.17 h
[3]; CDKN2A-mutated advanced pancreatic cancer
  Clinical activity: did not have meaningful clinical activity
[4]
  Dose-normalized geometric mean AUCτ: 1,569 ng·hour/mL
  Dose-normalized geometric mean Cmax: 90.44 ng/mL
Ki67; [8]
  Ki67 level: decreased
Ki67; [9]
  Ki67 level: decreased again to below baseline
Ki67; [10]
  Ki67 level: rebounded to baseline or higher levels
phospho-Rb (pRb); [8]
  pRb level: decreased
phospho-Rb (pRb); [9]
  pRb level: decreased again to below baseline
phospho-Rb (pRb); [10]
  pRb level: rebounded to baseline or higher levels
[5]; [11]
  AUCτ: 1,933 ng·hour/mL
  Cmax: 108 ng/mL
[5]; [12]
  AUCτ: 1,992 ng·hour/mL
  Cmax: 110 ng/mL
[6]; all patients
  Permanent discontinuation of palbociclib due to bacterial gastritis: 1.3%
  Permanent discontinuation of palbociclib due to infection: 1.3%
  Permanent discontinuation of palbociclib due to sepsis: 1.3%
[6]; for 21 of every 28 days, with nab-paclitaxel
  MTD of palbociclib: 100 mg

## CCc1cnn2c(NCc3ccc[n+]([O-])c3)cc(N3CCCC[C@H]3CCO)nc12 [dinaciclib]
Panc265 model
  Sensitivity of Panc265 model: sensitive

## FOLFIRINOX
[3]; FOLFIRINOX versus gemcitabine
  Median OS: 11.1 months

## Nc1ccn([C@@H]2O[C@H](CO)[C@@H](O)C2(F)F)c(=O)n1 [gemcitabine]
[3]; FOLFIRINOX versus gemcitabine
  Median OS: 6.8 months
[3]; GA versus gemcitabine alone, metastatic pancreatic cancer
  Median OS: 6.7 months

## CC(=O)O[C@H]1C(=O)[C@@]2(C)[C@H]([C@H](OC(=O)c3ccccc3)[C@]3(O)C[C@H](OC(=O)[C@H](O)[C@@H](NC(=O)c4ccccc4)c4ccccc4)C(C)=C1C3(C)C)[C@]1(OC(C)=O)CO[C@@H]1C[C@@H]2O [Paclitaxel]
[7]
  Metabolizing enzymes: metabolized primarily by cytochrome P450 (CYP) 2C8 and CYP3A4

B1: PEGPH20: agent not efficacious in randomized clinical trials in PDAC (protein, UniProt P38567 36-490, looked up)
Hyaluronidase PH-20: LNFRAPPVIPNVPFLWAWNAPSEFCLGKFDEPLDMSLFSFIGSPRINATGQGVTIFYVDRLGYYPYIDSITGVTVNGGIPQKISLQDHLDKAKKDITFYMPVDNLGMAVIDWEEWRPTWARNWKPKDVYKNRSIELVQQQNVQLSLTEATEKAKQEFEKAGKDFLVETIKLGKLLRPNHLWGYYLFPDCYNHHYKKPGYNGSCFNVEIKRNDDLSWLWNESTALYPSIYLNTQQSPVAATLYVRNRVREAIRVSKIPDAKSPLPVFAYTRIVFTDQVLKFLSQDELVYTFGETVALGASGIVIWGTLSIMRSMKSCLLLDNYMETILNPYIINVTLAAKMCSQVLCQEQGVCIRKNWNSSDYLHLNPDNFAIQLEKGGKFTVRGKPTLEDLEQFSEKFYCSCYSTLSCKEKADVKDTDAVDVCIADGVCIDAFLKPPMETEEPQIFYNASPSTLS
modifications: PEGylated; pegvorhyaluronidase alfa
[3]
  Efficacy in randomized clinical trials: not efficacious

B2: pegilodecakin: agent not efficacious in randomized clinical trials in PDAC (protein, UniProt P22301 19-178, looked up)
Interleukin-10: SPGQGTQSENSCTHFPGNLPNMLRDLRDAFSRVKTFFQMKDQLDNLLLKESLLEDFKGYLGCQALSEMIQFYLEEVMPQAENQDPDIKAHVNSLGENLKTLRLRLRRCHRFLPCENKSKAVEQVKNAFNKLQEKGIYKAMSEFDIFINYIEAYMTMKIRN
modifications: PEGylated
[3]
  Efficacy in randomized clinical trials: not efficacious
